Laboratory results taken from patent US20240043448A1, “Small Molecule Inhibitors of KRAS G12C Mutant” (Merck Sharp & Dohme LLC, priority 2019, published 2024).
Like-named read-outs stand apart in the source and are kept apart here.

What was measured:
[1] = molecular target: Biotinylated KRAS G12C protein (Homo sapiens (Human), UniProt P01116, C118S/C51S/C80L/G12C); assay: SOS-catalyzed nucleotide exchange assay (TR-FRET); type: biochemical; details: in vitro apparent potency; preincubation time of 60 minutes prior to addition of SOS
Procedure: The SOS-catalyzed nucleotide exchange assay utilizes a preformed complex of recombinant biotinylated KRAS protein containing G12C/C51S/C80L/C118S mutations (183 amino acids; biotin on K10; leader sequence which is an AviTag; referred to as SEQ ID NO: 1 or “Biotinylated KRAS G12C protein” hereafter), Bodipy-GDP, and Terbium-streptavidin. Compounds are added to this complex and then after incubation for 60 minutes, the mixture is treated with recombinant SOS protein and unlabeled GTP. Small molecule inhibitors stabilize the Bodipy-GDP complex whereas the untreated protein rapidly exchanges Bodipy-GDP for unlabeled GTP resulting in reduced TR-FRET signal.
Biotinylated KRAS G12C protein (SEQ ID NO: 1) is diluted to 2 μM in an EDTA buffer (20 mM HEPES, 150 mM sodium chloride, 10 mM EDTA, and 0.01% Tween) and incubated at room temperature for one hour. This mixture is then further diluted to 90 nM in an assay buffer (20 mM HEPES, 150 mM sodium chloride, 10 mM magnesium chloride, and 0.005% Tween) containing 15 nM of Terbium-Streptavidin (Invitrogen, catalog #PV3577) and 900 nM of Bodipy-GDP and incubated at room temperature for six hours. This solution is referred to as Biotinylated KRAS G12C mixture.
Each test compound (10 mM stock in DMSO) is diluted in DMSO to make a 10-point, 3-fold dilution series in a 384-well low dead volume microplate (Labcyte, catalog #LP-0200). Once titrations are made, 10 nL of the diluted compounds is acoustically dispensed into a 384-well plate (Corning, catalog #3820) using an Echo 550 (Labcyte).
Each well of the plate receives 3 μL Biotinylated KRAS G12C mixture that had been incubating for six hours and 3 μL of assay buffer using a BioRAPTR (Beckman Coulter) and is incubated at room temperature for 60 minutes. Each well then receives 3 μL of 240 nM recombinant human SOS protein and 9 mM GTP (Sigma, G8877) in assay buffer and is incubated at room temperature for 60 minutes.
The time-resolved fluorescence resonance energy transfer signal of the plate is measured on an Envision (PerkinElmer) plate reader: Excitation filter=340 nm; emission1=495 nm; emission2=520 nm; dichroic mirror=D400/D505; delay time=100 μs. The signal of each well is determined as the ratio of the emission at 520 nm to that at 495 nm. Percent effect of each well is determined after normalization to control wells containing DMSO (no effect) or a saturating concentration of inhibitor (max effect). The apparent effect as a function of compound concentration is fit to a four parameter logistic equation.

phospho-ERK = assay: Cellular phospho-ERK assay; type: cell-based; details: NCI-H358 cells, 2 hour incubation, ratio of p-Erk vs total Erk, read-out: IC50 (nM) pERK (Cell)
Procedure: NCI-H358 cells (ATCC® CRL-5807™) were cultured in T150 flask in growth medium (RPMI medium 1640-GlutaMAX™-I (ThermoFisher Scientific 61870) containing 10% fetal bovine serum (ThermoFisher Scientific 10091148)). The cells were harvested in growth medium after TrypLE (ThermoFisher scientific 12604021) digestion and were seeded in a 384-well collagen coated cell culture plate (Corning 356702) at a density of 15,000 cells/well, and incubated at 37° C., 5% CO2 overnight. The compound dose-response titrations were prepared and appropriate amounts of compounds were dispensed in a 384-well intermediate plate using an Echo 550 liquid handler. RPMI medium 1640-GlutaMAX™-I were added to the intermediate plate and transferred to 384-well cell culture plate, which was incubated at 37° C., 5% CO2 for 2 hours. After removal of medium from the plate, cells were lysed in lysis buffer from Alpha SureFire® Ultra™ Multiplex p-Erk and total Erk assay kit (PerkinElmer MPSU-PTERK) containing Halt™ Protease and Phosphotase inhibitor cocktail (ThermoFisher Scientific 78446) at room temperature with constant shaking at 300 rpm for 30 minutes. The cell lysates were then transferred to OptiPlate-384 plate (PerkinElmer 6005620) and the phosphorylation of Erk and total Erk levels were detected by Alpha SureFire Ultra Multiplex p-Erk kit (PerkinElmer MPSU-PTERK) following the manufacturer's protocol. Assay plates were read on an EnVision Multimode Plate Reader (PerkinElmer), and the ratio of p-Erk vs total Erk in each well was used as the final readout. Dose response curves were analyzed using a 4-parameter logistic model to calculate IC50 values using spotfire software.

| IC50 [1] [nM] | IC50 (phospho-ERK; Homo sapiens, NCI-H358, 2 h) [nM] | Compound | IC50 (phospho-ERK) [nM] |
| --- | --- | --- | --- |
| 2680 | 13900 | C=CC(=O)N1CCN(c2nc(=O)n3c4nc(c(F)cc24)-c2cccnc2OCCCOc2ccnc(C(C)C)c2-3)[C@@H](C)C1 (single isomer, unassigned) [Example 2a] |  |
| 11 | 49 | C=CC(=O)N1CCN(c2nc(=O)n3c4nc(c(F)cc24)-c2c(F)cccc2OCCCc2ccnc(C(C)C)c2-3)[C@@H](CC)C1 [Example 98, 2-[(25)-2-ethyl-4-(prop-2-enoyl)piperazin-1-yl]-17,20-difluoro-6-(propan-2-yl)-11,12-dihydro-4H,10H-1,18-(ethanediylidene)pyrido[4,3-e]pyrimido[1,6-g][1,7,9] benzoxadiazacyclododecin-4-one] |  |
| 1910 | 3600 | C=CC(=O)N1CC2CCC1CN2c1nc(=O)n2c3nc(c(F)cc13)-c1c(F)cccc1OCCCc1ccnc(C(C)C)c1-2 (stereo not drawn) [Example 105, 17,20-difluoro-6-(propan-2-yl)-2-[5-(prop-2-enoyl)-2,5-diazabicyclo[2.2.2]octan-2-yl]-11,12-dihydro-4H,10H-1,18-ethenopyrido[4,3-e]pyrimido[1,6-g][1,7,9]benzoxadiazacyclododecin-4-one] |  |
| 15 |  | C=CC(=O)N1CCN(c2nc(=O)n3c4nc(c(F)cc24)-c2cccc4cnn(c24)CCCOc2ccnc(C(C)C)c2-3)[C@H](C)C1 [Example 3b, 22-fluoro-2-[(2S)-2-methyl-4-(prop-2-enoyl)piperazin-1-yl]-6-(propan-2-yl)-12,13-dihydro-4H,11H-1,20-ethenopyrido[4′,3′:2,3]pyrimido[1′,6′:4,5][1,4,6,10]oxatriazacyclotridecino[8,9,10-hi]indazol-4-one] | 93 |
| 64 | 389 | C=CC(=O)N1C[C@H](C)N(c2nc(=O)n3c4nc(c(F)cc24)-c2cc(C(F)(F)F)ccc2OCCOc2ccnc(C(C)C)c2-3)C[C@H]1C [Example 86, 2-[(2S,5R)-2,5-dimethyl-4-(prop-2-enoyl)piperazin-1-yl]-20-fluoro-6-(propan-2-yl)-16-(trifluoromethyl)-11,12-dihydro-4H-1,18-(ethanediylidene)pyrido[4,3-e]pyrimido[1,6-g][1,4,7,9] benzodioxadiazacyclododecin-4-one] |  |
| 1.8 |  | C=CC(=O)N1C[C@H](C)N(c2nc(=O)n3c4nc(c(F)cc24)-c2c(F)cccc2OCC(F)(F)CCc2ccnc(C(C)C)c2-3)C[C@H]1C [Example 52, (5aRa,18aRa)-2-[(2S,5R)-2,5-dimethyl-4-(prop-2-enoyl)piperazin-1-yl]-12,12,18,21-tetrafluoro-6-(propan-2-yl)-10,11,12,13-tetrahydro-4H-1,19-(ethanediylidene)pyrido[4,3-f]pyrimido[1,6-h][1,8,10]benzoxadiazacyclotridecin-4-one] | 9.3 |
| 6.8 |  | C=CC(=O)N1CCN(c2nc(=O)n3c4nc(c(F)cc24)-c2c(F)cccc2C(=O)NCCCc2ccnc(C(C)C)c2-3)[C@@H](C)C1 (single isomer, unassigned) [Example 19a] | 117 |
| 31 | 572 | C=CC(=O)N1C[C@H](C)N(c2nc(=O)n3c4cc(c(F)cc24)-c2c(F)ccc(F)c2OCCOc2ccnc(C(C)C)c2-3)C[C@H]1C [Example 93, 2-[(2S,5R)-2,5-dimethyl-4-(prop-2-enoyl)piperazin-1-yl]-14,17,20-trifluoro-6-(propan-2-yl)-11,12-dihydro-4H-1,18-(ethanediylidene)pyrido[4,3-e]pyrimido[1,6-g][1,4,7]benzodioxazacyclododecin-4-one] |  |

| Compound | IC50 [1] [nM] | IC50 (phospho-ERK; Homo sapiens, NCI-H358, 2 h) [nM] | IC50 (phospho-ERK) [nM] |
| --- | --- | --- | --- |
| [2H]C1([2H])Oc2ccc(F)c(F)c2-c2nc3c(cc2Cl)c(N2CC(C)N(C(=O)C=C)CC2C)nc(=O)n3-c2c(ccnc2C(C)C)OC1([2H])[2H] [Example 57, (5aSa,17aRa)-20-chloro-2-[(2S,5R)-2,5-dimethyl-4-(prop-2-enoyl)piperazin-1-yl]-16,17-difluoro-6-(propan-2-yl)-11,12-di[(^2H)hydro](11,12-^2H2)-4H-1,18-(ethanediylidene)pyrido [4,3-e]pyrimido[1,6-g] [1,4,7,9]benzodioxadiaza-cyclododecin-4-one] | 0.51 | 6.1 |  |
| C=CC(=O)N1C[C@H](C)N(c2nc(=O)n3c4nc(c(Cl)cc24)-c2c(F)cccc2OCCc2ccnc(C(C)C)c2-3)C[C@H]1C (atropisomer, axis not shown) [Example 119, 19-chloro-2-[(2S,5R)-2,5-dimethyl-4-(prop-2-enoyl)piperazin-1-yl]-16-fluoro-6-(propan-2-yl)-10,11-dihydro-4H-1,17-ethenopyrido[4,3-d]pyrimido[1,6-f][1,6,8]benzoxadiazacycloundecin-4-one] | 2.6 |  | 5.1 |
| [(2S)-4-[17,20-difluoro-4- oxo-6-(propan-2-yl)-11,12- dihydro-4H-1,18- (ethanediylidene)pyrido[4,3- e]pyrimido[1,6-g][1,4,7,9] benzodioxadiazacyclo- dodecin-2-yl]-1-(prop-2- enoyl)piperazin-2- yl]acetonitrile [Example 14a] | 8.1 |  | 1240 |
| C=CC(=O)N1C[C@H](C)N(c2nc(=O)n3c4nc(c(Cl)cc24)-c2c(ccc(F)c2F)OCCCc2ncnc(C(C)C)c2-3)C[C@H]1C [Example 74, 20-chloro-2-[(2S,5R)-2,5-dimethyl-4-(prop-2-enoyl)piperazin-1-yl]-16,17-difluoro-6-(propan-2-yl)-11,12-dihydro-4H,10H-1,18-ethenodipyrimido[4,5-e:1′,6′-g][1,7,9]benzoxadiazacyclododecin-4-one] | 0.51 | 3.6 |  |
| C=CC(=O)N1CCN(c2nc(=O)n3c4nc(c(F)cc24)-c2c(F)cccc2OCCCc2ccnc(C(C)C)c2-3)[C@@H](C)C1 (single isomer, unassigned) [Example 10b] | 2590 |  | 4380 |
| C=CC(=O)N1C[C@H](C)N(c2nc(=O)n3c4nc(c(F)cc24)-c2c(Cl)cccc2OCCCc2ccnc(C(C)C)c2-3)C[C@H]1C [Example 76, 17-chloro-2-[(2S,5R)-2,5-dimethyl-4-(prop-2-enoyl)piperazin-1-yl]-20-fluoro-6-(propan-2-yl)-11,12-dihydro-4H,10H-1,18-ethenopyrido[4,3-e]pyrimido[1,6-g][1,7,9]benzoxadiazacyclododecin-4-one] | 2.3 | 3.6 |  |
| C=CC(=O)N1C[C@H](C)N(c2nc(=O)n3c4nc(c(F)cc24)-c2c(F)cccc2OCCCCc2ccnc(C(C)C)c2-3)C[C@H]1C [Example 8, 2-[(2S,5R)-2,5-dimethyl-4-(prop-2-enoyl)piperazin-1-yl]-18,21-difluoro-6-(propan-2-yl)-10,11,12,13-tetrahydro-4H-1,19-ethenopyrido[4,3-f]-pyrimido[1,6-h][1,8,10]ben-zoxadiazacyclotridecin-4-one] | 3.5 | 2.2 |  |
